Measurements reported in article PMC10878032 (Molecular cancer therapeutics, 2023).
Where a SMILES comes first, the peptide text is derived from it. The star is where a group is joined. Cbz = O=C(OCc1ccccc1)*

Tests used:
[1] = cited from earlier work
[2] = tested on: MCF-7 cells; test: aggresome formation and immunostaining; format: cell-based, human; conditions: MCF-7, 24 hours; SP-2-225 10 μmol/L, MG-132 5 μmol/L
[3] = tested on: MCF-7 breast cancer cells; test: immunoblot of substrate acetylation in MCF-7 cells; format: cell-based, human; conditions: SP-2-225 10 μmol/L, SAHA and SP-1–161 1 μmol/L, Western blot
[4] = tested on: bladder cancer; conditions: cited from earlier work

Cc1[nH]c2ccccc2c1CCNCc1ccc(/C=C/C(=O)NO)cc1 [LBH589]
direct cytotoxic effect [1]: direct cytotoxic effect even at nanomolar concentrations

CC(C)C[C@@H](C=O)NC(=O)[C@H](CC(C)C)NC(=O)[C@H](CC(C)C)NC(=O)OCc1ccccc1 [MG-132] (Cbz-Leu-Leu-Leu-aldehyde)
aggresome formation [2]: significant aggresome formation

O=C(CCCCCCC(=O)Nc1ccccc1)NO [SAHA, suberoylanilide hydroxamic acid]
acetylation of histone H3 [3]: increased the acetylation of α-tubulin and histone H3
acetylation of α-tubulin [3]: increased the acetylation of α-tubulin

O=C(CCCCCCC(=O)Nc1ccc([C@H]2O[C@@H](CSc3nc(-c4ccccc4)c(-c4ccccc4)o3)C[C@@H](c3ccc(CO)cc3)O2)cc1)NO [Tubacin]
radiosensitization effect [4]: demonstrated radiosensitization effect
